Results: patent US12715858B2, “Pyridazinone compounds” (INVENTISBIO CO., LTD., priority 2020, dated 2026)
Converted amounts (≈) assume the structure as drawn. Where two headings read alike, the source gives them in different places.

Tests used:
Assay type in all cases: physicochemical
[1] = Slurry study of Form II at 50° C.; settings: MeOH, ACN, acetone, EA and water at 50° C., after 1 day
Experimental: In addition, slurry study of Form II was performed in MeOH, ACN, acetone, EA and water at 50° C., respectively.

[2] = Dynamic Vapor Sorption (DVS); settings: for hygroscopicity: DVS; for crystal form of solid after the DVS study: XRPD after DVS; for water uptake / weight gain by DVS: at 80% RH (Form I: 0 to 80% RH), 25° C.
Experimental: Dynamic Vapor Sorption (DVS): Moisture sorption/desorption data was collected on a IGASorp DVS. The sample was placed into a tarred sample chamber and weighed automatically. The sample was dried at 50° C. until the % RH was less than 0.3% and cooled to 25° C. Set the instrument parameters as below.

[3] = Solid state stability at 60° C. and 40° C./75% RH for 7 days (HPLC purity, XRPD); settings: for Purity at Day 7 (Area %) 40° C./75% RH: 7 days at 40° C./75% RH; for Purity at Day 7 (Area %) 40° C./75% RH / Purity at Day 7 (Area %) 60° C.: HPLC; for Purity at Day 7 (Area %) 60° C.: 7 days at 60° C.; for XRPD 40° C./75% RH: crystal form after 7 days at 40° C./75% RH; for XRPD 60° C.: crystal form after 7 days at 60° C.; for Initial Purity (Area %): day 0, HPLC
Experimental: HPLC analysis was performed with an Agilent HPLC 1260 series instrument.
Appropriate amount of free acid Form I, potassium salts Form 1 and Form 2, and sodium salt Form A were placed at 60° C. and 40° C./75% RH for 7 days. At 0 and 7 days, the samples were dissolved in diluent to prepare a solution of 0.5 mg/mL for HPLC purity analysis. Solid samples were analyzed by XRPD to check the crystal form.

[4] = Solubility in water and bio-relevant media at 37° C. (HPLC of filtrate, pH of filtrate, XRPD of filter cake); settings: for solubility at 24 h / solubility at 0.5 h / solubility at 2 h: thermodynamic from solid; for solubility at 24 h / Solubility (mg/mL) 0.5 h / Solubility (mg/mL) 2 h / Solubility (mg/mL) 24 h / solubility at 0.5 h / solubility at 2 h: 37° C.; for solubility at 24 h: read-out: Solubility (mg/mL) 24 h; for XRPD: filter cake obtained at 2 or 24 hours; for PH 0.5 h / PH 2 h / PH 24 h: pH of the filtrate; for solubility at 0.5 h: read-out: Solubility (mg/mL) 0.5 h; for solubility at 2 h: read-out: Solubility (mg/mL) 2 h
Experimental: Solubility of Form I of free acid, Form 1 and Form 2 of potassium salt, and Form A of sodium salt were tested in water and in bio-relevant media of Simulated Intestinal Fluid (SIF), Simulated Gastric Fluid (SGF), Fasted State Simulated Intestinal Fluid (FaSSIF), and Fed State Simulated Intestinal Fluid (FeSSIF) at 37° C. up to 24 hours. About 12 mg of the sample was weighed into sample vials and then 1.5 mL of each media was added to make suspensions respectively. All suspensions were shaken at 37° C. with 200 rpm.

[5] = Physical stability upon grinding and high humidity; settings: for crystal form (XRPD) after grinding / crystallinity after grinding: ground manually, up to 5 min
Experimental: Physical stability of Form I was evaluated upon grinding and high humidity (RT/92.5% RH for 24 days). For mechanical treatment study, Form I (10 mg) was ground manually for 5 min, and the sample was analyzed by XRPD after grinding for 2 and 5 min, respectively.

[6] = Interconversion study of potassium salt Form 1 and Form 2 (slurry of equal amounts); settings: slurry in MeOH/EA and acetone/water, RT or 50° C.
Experimental: Interconversion study were performed in MeOH/EA (1/9, RT or 50° C.) and acetone/water (20/1, RT or 50° C.). Equal amounts of Form 1 and Form 2 were slurried in specified solvents at different temperatures for certain time.

[7] = Water activity study of potassium salt Form 1 in MeOH/water; settings: for Result (XRPD form): 24 h
Experimental: Form 1 was further tested to determine the influence of water on the crystalline form. Thus, 15 mg of potassium salt Form 1 was added into 0.3 mL of MeOH/water (with various amounts of water), and then the suspension was kept stirring at 25° C. for 24 h. The solid was collected by filtration and characterized by XRPD.

[8] = FeSSIF (Fed State Simulated Intestinal Fluid), 37 °C, fessif, FeSSIF
[9] = water, 37 °C, water, Water, LOQ is 0.5 μg/mL

SMILES: Cc1nn(-c2cc(Cl)c(Oc3cc(C(C)C)c(=O)[nH]n3)c(Cl)c2)c(=O)[nH]c1=O [Form II]
- form conversion in slurry [1]: completely converted to Form I

SMILES: Cc1nn(-c2cc(Cl)c(Oc3cc(C(C)C)c(=O)[nH]n3)c(Cl)c2)c(=O)[nH]c1=O [Free acid Form I, 2-(3,5-dichloro-4-((5-isopropyl-6-oxo-1,6-dihydropyridazin-3-yl)oxy)phenyl)-6-methyl-1,2,4-triazine-3,5(2H,4H)-dione]
- hygroscopicity [2]: slightly hygroscopic
- crystal form of solid after the DVS study [2]: remained unchanged
- water uptake / weight gain by DVS [2]: 0.9%
- Purity at Day 7 (Area %) 40° C./75% RH [3]: 96.42 Area %
- Purity at Day 7 (Area %) 60° C. [3]: 96.47 Area %
- XRPD 40° C./75% RH [3]: Unchanged
- XRPD 60° C. [3]: Unchanged
- Initial Purity (Area %) [3]: 96.45 Area %
- solubility at 24 h ([4]; FaSSIF (Fasted State Simulated Intestinal Fluid), FaSSIF): 0.00052 mg/mL (≈ 1.23 µM)
- Solubility (mg/mL) 0.5 h ([4]; FaSSIF, LOQ is 0.5 μg/mL): <LOQ
- Solubility (mg/mL) 2 h ([4]; FaSSIF, LOQ is 0.5 μg/mL): <LOQ
- Solubility (mg/mL) 0.5 h ([4]; SGF, LOQ is 0.5 μg/mL): <LOQ
- Solubility (mg/mL) 2 h ([4]; SGF, LOQ is 0.5 μg/mL): <LOQ
- Solubility (mg/mL) 24 h ([4]; SGF, LOQ is 0.5 μg/mL): <LOQ
- Solubility (mg/mL) 0.5 h ([4]; SIF, LOQ is 0.5 μg/mL): <LOQ
- Solubility (mg/mL) 2 h ([4]; SIF, LOQ is 0.5 μg/mL): <LOQ
- Solubility (mg/mL) 24 h ([4]; SIF, LOQ is 0.5 μg/mL): <LOQ
- Solubility (mg/mL) 0.5 h ([4]; Water, LOQ is 0.5 μg/mL): <LOQ
- Solubility (mg/mL) 2 h ([4]; Water, LOQ is 0.5 μg/mL): <LOQ
- Solubility (mg/mL) 24 h ([4]; Water, LOQ is 0.5 μg/mL): <LOQ
- XRPD ([4]; FaSSIF): unchanged
- XRPD ([4]; SGF): unchanged
- XRPD ([4]; SIF): unchanged
- XRPD ([4]; Water): unchanged
- PH 0.5 h ([4]; FaSSIF): 6.72
- PH 2 h ([4]; FaSSIF): 6.60
- PH 24 h ([4]; FaSSIF): 6.74
- PH 0.5 h ([4]; FeSSIF): 4.91
- PH 2 h ([4]; FeSSIF): 4.86
- PH 24 h ([4]; FeSSIF): 5.00
- PH 0.5 h ([4]; SGF): 1.17
- PH 2 h ([4]; SGF): 1.19
- PH 24 h ([4]; SGF): 1.16
- PH 0.5 h ([4]; SIF): 6.89
- PH 2 h ([4]; SIF): 6.86
- PH 24 h ([4]; SIF): 6.79
- PH 0.5 h ([4]; Water): 6.48
- PH 2 h ([4]; Water): 6.59
- PH 24 h ([4]; Water): 6.44
- solubility at 0.5 h ([4]; FeSSIF): 0.00056 mg/mL (≈ 1.32 µM)
- solubility at 2 h ([4]; FeSSIF): 0.001 mg/mL (≈ 2.36 µM)
- solubility at 24 h ([4]; FeSSIF): 0.0011 mg/mL (≈ 2.59 µM)
- form change upon high humidity ([5]; RT/92.5% RH for 24 days): no form change was observed
- crystal form (XRPD) after grinding [5]: remained unchanged
- crystallinity after grinding [5]: significantly decreased

SMILES: Cc1nn(-c2cc(Cl)c(Oc3cc(C(C)C)c(=O)[nH]n3)c(Cl)c2)c(=O)[n-]c1=O.[K+] [Potassium salt Form 1]
- DVS Water % at 80% RH ([2]; 80% RH, forms of potassium salt of Compound 1): 1.8%
- hygroscopicity [2]: slight hygroscopic
- crystal form of solid after the DVS study [2]: remained unchanged
- water uptake / weight gain by DVS [2]: 1.8%
- chemical and physical stability ([3]; 40° C./75% RH and 60° C. for 7 days): chemically and physically stable
- Purity at Day 7 (Area %) 40° C./75% RH [3]: 99.29 Area %
- Purity at Day 7 (Area %) 60° C. [3]: 99.50 Area %
- XRPD 40° C./75% RH [3]: Unchanged
- XRPD 60° C. [3]: Unchanged
- Initial Purity (Area %) [3]: 99.23 Area %
- solubility at 2 h ([4]; FaSSIF (Fasted State Simulated Intestinal Fluid), 37 °C, fassif, FaSSIF, LOQ is 0.5 μg/mL): 0.013 mg/mL
- solubility at 24 h ([4]; FaSSIF (Fasted State Simulated Intestinal Fluid), 37 °C, fassif, FaSSIF): 0.0064 mg/mL
- Solubility (mg/mL) 0.5 h ([4]; FaSSIF, LOQ is 0.5 μg/mL): <LOQ
- solubility at 2 h [4, 8]: 0.0089 mg/mL
- solubility at 24 h [4, 8]: 0.013 mg/mL
- Solubility (mg/mL) 0.5 h ([4]; FeSSIF): 0.0017 mg/mL
- Solubility (mg/mL) 0.5 h ([4]; SGF, LOQ is 0.5 μg/mL): <LOQ
- Solubility (mg/mL) 2 h ([4]; SGF, LOQ is 0.5 μg/mL): <LOQ
- Solubility (mg/mL) 24 h ([4]; SGF, LOQ is 0.5 μg/mL): <LOQ
- Solubility (mg/mL) 0.5 h ([4]; SIF, LOQ is 0.5 μg/mL): <LOQ
- Solubility (mg/mL) 2 h ([4]; SIF, LOQ is 0.5 μg/mL): <LOQ
- Solubility (mg/mL) 24 h ([4]; SIF, LOQ is 0.5 μg/mL): <LOQ
- XRPD ([4]; FaSSIF): Free acid
- XRPD ([4]; FeSSIF): Free acid
- XRPD ([4]; SGF): Free acid
- XRPD ([4]; SIF): Free acid
- XRPD ([4]; Water): Free acid
- PH 0.5 h ([4]; FaSSIF): 7.03
- PH 2 h ([4]; FaSSIF): 7.36
- PH 24 h ([4]; FaSSIF): 8.29
- PH 0.5 h ([4]; FeSSIF): 5.06
- PH 2 h ([4]; FeSSIF): 5.21
- PH 24 h ([4]; FeSSIF): 5.24
- PH 0.5 h ([4]; SGF): 1.18
- PH 2 h ([4]; SGF): 1.26
- PH 24 h ([4]; SGF): 1.25
- PH 0.5 h ([4]; SIF): 7.52
- PH 2 h ([4]; SIF): 7.52
- PH 24 h ([4]; SIF): 7.44
- PH 0.5 h ([4]; Water): 11.02
- PH 2 h ([4]; Water): 11.00
- PH 24 h ([4]; Water): 10.57
- solubility at 0.5 h [4, 9]: 5.79 mg/mL
- solubility at 2 h [4, 9]: 5.28 mg/mL
- solubility at 24 h [4, 9]: 5.15 mg/mL
- relative stability of Form 1 and Form 2 [6]: more stable in non-aqueous system
- crystal form (XRPD) after grinding [5]: remained unchanged
- crystallinity after grinding [5]: decreased
- Result (XRPD form) ([7]; MeOH/water (80/20), Aw 0.3598, 25° C.): Form 1 + 2
- Result (XRPD form) ([7]; MeOH/water (86/14), Aw 0.2679, 25° C.): Form 1 + 2
- Result (XRPD form) ([7]; MeOH/water (90/10), Aw 0.1998, 25° C.): Form 1 + 2
- Result (XRPD form) ([7]; MeOH/water (95/5), Aw 0.1058, 25° C.): Form 2
- Result (XRPD form) ([7]; MeOH/water (97/3), Aw 0.065, 25° C.): Form 2
- Result (XRPD form) ([7]; MeOH/water (99/1), Aw 0.021, 25° C.): Form 1 + 2
- Result (XRPD form) ([7]; MeOH/water (99.5/0.5), Aw 0.010, 25° C.): Form 1
- Result (XRPD form) ([7]; MeOH/water (100/0), Aw 0, 25° C.): Form 1
- water activity at which Form 1 has the tendency to convert to Form 2 ([7]; after 24 h, 0.5% of water content): > 0.01
